# Reference: the supplement of paper PMC8253809
# What was measured:
# HGGX39 [1] = paediatric high-grade glioma line; test: area under dose-response curve of % growth inhibition (log2 RLU vs DMSO / staurosporine), 1e-11 to 1e-4 M (% x log10 M); higher = more growth inhibition
# Outline: (§1)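 Patient-derived pHGG/DIPG cell lines and astrocytes, cultured on 384-well plates with a 1% Geltrex coating, were given a 10-point threefold dilution series (mean top concentration 35 μM) in triplicate for 7 days (iAstro 3 days) at 37 °C, 5% CO2. CellTiter-Glo signal, log2-transformed and normalised per plate to % activity against solvent and positive controls, was fitted with a log-logistic curve or, where the sigmoid fit failed, a smoothing spline. Area under the curve was then computed by the trapezoid rule.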
# DIPGX37 [2] = H3.3 K27M diffuse intrinsic pontine glioma line; test: as above
# Outline: as §1
# HGGX6 [3] = H3.3 G34R paediatric high-grade glioma line; test: as above
# Outline: as §1
# DIPGX29 = H3.3 K27M diffuse intrinsic pontine glioma line; test: as above
# Outline: as §1
# HGGX39 [4] = test: maximal growth inhibition (yFin) relative to DMSO / staurosporine; higher = more efficacious
# Outline: (§2)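 Viability readout was CellTiter-Glo luminescence, log2-transformed, normalised per plate to % activity between negative (solvent) and positive control wells, then pooled. This followed a 7-day exposure (3 days for iAstro) at 37 °C, 5% CO2 to a 10-point threefold dilution series (mean top concentration 35 μM), pin-tool delivered in triplicate to patient-derived pHGG/DIPG cell lines and astrocyte controls on 1% Geltrex-coated 384-well plates. Three- and four-parameter log-logistic fits were compared, and the one with the lowest AICc supplied EC50 and maximal response (yFin).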
# HGGX6 [5] = test: as above
# Outline: as §2
# HGGX39 [6] = test: EC50 (inflection of fitted growth-inhibition curve) (log10 M)
# Outline: as §2
# HGGX6 [7] = test: as above
# Outline: as §2
# DIPGX37 [8] = test: maximal growth inhibition (yFin) relative to DMSO / staurosporine; higher = more efficacious
# Outline: as §2
# DIPGX37 [9] = test: EC50 (inflection of fitted growth-inhibition curve) (log10 M)
# Outline: as §2
SMILES,area under dose-response curve (HGGX39 [1]),area under dose-response curve (DIPGX37 [2]),area under dose-response curve (HGGX6 [3]),area under dose-response curve (DIPGX29),maximal growth inhibition (HGGX39 [4]) [%],maximal growth inhibition (HGGX6 [5]) [%],EC50 (log10 M) (HGGX39 [6]),EC50 (log10 M) (HGGX6 [7]),maximal growth inhibition (DIPGX37 [8]) [%],EC50 (log10 M) (DIPGX37 [9])
Cc1ccc(C(=O)Nc2ccc(Oc3cc4cnn(C)c4cc3-c3cn[nH]c3)c(F)c2)c(=O)n1-c1ccc(F)cc1,28.1,16.1,41.1,22.4,20.9,25.3,-5.27,-5.1,,
Nc1nccc(-c2c(-c3ccc(F)cc3)ncn2C2CCCCC2)n1,21.3,21.5,31.7,16.4,,21,,-4.94,,
CC(=O)OC12COC1CC(O)C1(C)C(=O)C(O)C3=C(C)C(O)CC(O)(C(OC(=O)c4ccccc4)C21)C3(C)C (configuration not stated) [10-DEACETYLBACCATIN-III],47.3,28.9,14.9,13.6,39.6,,-5.19,,31.4,-4.92
Clc1cc2c(NC3CCCC3)nnc(-c3ccncc3)c2cc1Cl [A-196],2.32,18.8,3.18,2.12,,,,,23.4,-4.53
COc1cc(Nc2ncc3c(n2)-c2ccc(Cl)cc2C(c2c(F)cccc2OC)=NC3)ccc1C(=O)O [ALISERTIB],69.3,66.4,49.8,52.1,39.1,24.7,-4.99,-5.31,,
C[C@@H]1CC[C@H]2[C@@H](C)C(=O)O[C@@H]3O[C@@]4(C)CC[C@@H]1[C@]32OO4 [ARTEMISININ],36.8,42.5,20.9,19.7,29.7,,-5.38,,32.7,-5.3
C[C@H]1[C@H](OC(=O)CCC(=O)O)O[C@@H]2O[C@@]3(C)CC[C@H]4[C@H](C)CC[C@@H]1[C@@]24OO3 [ARTESUNATE],29,9.88,23.5,8.84,32.5,22.2,-4.94,-5.03,,
c1ccc(-c2ccc(C(c3ccccc3)n3ccnc3)cc2)cc1 (configuration not stated) [BIFONAZOLE],30.5,31.9,16.4,17.3,,20.1,,-4.81,42.4,-4.75
Cc1c(N)nc([C@H](CC(N)=O)NC[C@H](N)C(N)=O)nc1C(=O)N[C@H](C(=O)N[C@H](C)[C@@H](O)[C@H](C)C(=O)N[C@H](C(=O)NCCc1nc(-c2nc(C(=O)NCCC[S+](C)C)cs2)cs1)[C@@H](C)O)[C@@H](OC1OC(CO)C(O)C(O)C1OC1OC(CO)C(O)C(OC(N)=O)C1O)c1cnc[nH]1 (some centres not stated) [BLEOMYCIN],19.5,40.4,6.9,22.6,,,,,24.8,-5.22
COc1cc2nccc(Oc3ccc(NC(=O)C4(C(=O)Nc5ccc(F)cc5)CC4)cc3)c2cc1OC [CABOZANTINIB],37.5,12.8,33,10.6,60.2,27.1,-4.62,-4.79,,
C/C=C(\C)C(=O)N[C@@H](c1ccccc1)[C@@H](O)C(=O)O[C@H]1C[C@@]2(O)[C@@H](OC(=O)c3ccccc3)[C@@H]3[C@]4(OC(C)=O)CO[C@@H]4C[C@H](O)[C@@]3(C)C(=O)[C@H](OC(C)=O)C(=C1C)C2(C)C [CEPHALOMANNINE],180,101,54.1,46.7,48.4,,-7.73,,28.2,-7.58
Nc1nc(Cl)nc2c1ncn2[C@@H]1O[C@H](CO)[C@@H](O)[C@@H]1F [CLOFARABINE],44.4,47,40.9,52.4,,22.7,,-5.65,28.4,-5.4
Cc1sc2c(c1C)C(c1ccc(Cl)cc1)=N[C@@H](CC(N)=O)c1nnc(C)n1-2 [CPI-203],47.1,62.1,35.8,26.8,,,,,22.3,-6.88
CC(C)n1c(/C=C/C(O)CC(O)CC(=O)O)c(-c2ccc(F)cc2)c2ccccc21 (configuration not stated) [FLUVASTATIN],51.2,1.43,54,25.5,23.9,26.8,-6.08,-5.92,,
CCc1c2c(nc3ccc(OC(=O)N4CCC(N5CCCCC5)CC4)cc13)-c1cc3c(c(=O)n1C2)COC(=O)[C@]3(O)CC [IRINOTECAN],107,56.4,25.9,52.4,53.2,,-5.98,,20.5,-7.09
CCC(C)n1ncn(-c2ccc(N3CCN(c4ccc(OCC5COC(Cn6cncn6)(c6ccc(Cl)cc6Cl)O5)cc4)CC3)cc2)c1=O (configuration not stated) [ITRACONAZOLE],28.4,56.7,29.7,20,,,,,62.3,-4.91
N[C@@H](Cc1cc(I)c(Oc2ccc(O)c(I)c2)c(I)c1)C(=O)O [LIOTHYRONINE],51.4,62.2,11.9,31.4,26.4,,-5.95,,26.5,-5.69
Cc1cc(=O)n(C)c2cc(N3C(=O)CC[C@H](NS(=O)(=O)CC(C)C)[C@H]3c3ccc(Cl)cc3)ccc12 [LP-99],11.5,10.2,21.2,12.9,,22.4,,-4.95,,
CC[C@H](C)C(=O)O[C@H]1CCC=C2C=C[C@H](C)[C@H](CC[C@@H]3C[C@@H](O)CC(=O)O3)[C@H]21 [MEVASTATIN],56.7,41.4,23.3,32.6,57.7,,-4.97,,20.8,-5.53
O=C1c2c(O)ccc(O)c2C(=O)c2c(NCCNCCO)ccc(NCCNCCO)c21 [MITOXANTHRONE],116,104,112,116,,,,,81.9,-4.79
COc1ccc(C2CC(c3ccccc3)=NN2c2ccc(S(N)(=O)=O)cc2)cc1 (configuration not stated) [ML141],20,33.4,33.7,26.6,38.3,,-4.54,,,

SMILES,area under dose-response curve (HGGX39 [1]),area under dose-response curve (DIPGX37 [2]),area under dose-response curve (HGGX6 [3]),area under dose-response curve (DIPGX29),maximal growth inhibition (HGGX39 [4]) [%],maximal growth inhibition (HGGX6 [5]) [%],EC50 (log10 M) (HGGX39 [6]),EC50 (log10 M) (HGGX6 [7]),maximal growth inhibition (DIPGX37 [8]) [%],EC50 (log10 M) (DIPGX37 [9])
Cc1sc2c(c1C)C(c1ccc(Cl)cc1)=N[C@@H](CC(=O)Nc1ccc(O)cc1)c1nnc(C)n1-2 [OTX015],53.1,80,33.7,30.3,50.6,,-5.11,,29.5,-6.7
CCCCOc1cc(C(=O)OCCN(CC)CC)ccc1N [OXYBUPROCAINE],65.7,16.5,29.7,11.5,67.2,26.6,-4.97,-5.11,,
CC(=O)O[C@H]1C(=O)[C@@]2(C)[C@H]([C@H](OC(=O)c3ccccc3)[C@]3(O)C[C@H](OC(=O)[C@H](O)[C@@H](NC(=O)c4ccccc4)c4ccccc4)C(C)=C1C3(C)C)[C@]1(OC(C)=O)CO[C@@H]1C[C@@H]2O [PACLITAXEL],179,99.3,55.2,42.1,42.5,,-8.21,,24.3,-8.09
C#CCC(Cc1cnc2nc(N)nc(N)c2n1)c1ccc(C(=O)N[C@@H](CCC(=O)O)C(=O)O)cc1 (some centres not stated) [PRALATREXATE],116,73,83.2,66.7,25.5,22.1,-8.55,-7.84,,
Nc1cc(F)ccc1NC(=O)/C=C/c1cnn(C/C=C/c2ccccc2)c1 [RGFP966],13.5,66.1,12.3,17.1,,,,,68.6,-4.62
CN(C)C(=O)c1cc2cnc(Nc3ccc(N4CCNCC4)cn3)nc2n1C1CCCC1 [RIBOCICLIB],32.5,27.7,17.1,13.1,21.8,,-5.39,,,
N#CC[C@H](C1CCCC1)n1cc(-c2ncnc3[nH]ccc23)cn1 [RUXOLITINIB],44.9,44.2,28.9,24.4,27.7,21.7,-5.58,-5.22,,
O=C(/C=C\n1cnc(-c2cc(C(F)(F)F)cc(C(F)(F)F)c2)n1)NNc1cnccn1 [SELINEXOR],195,169,205,144,96.2,101,-6.06,-5.23,,
O=C(NCC(=O)N1CCCC1)Nc1ccc2cnccc2c1 [SGC-707],31.4,11.8,11.3,20.9,58.4,,-4.55,,,
CCC(C)(C)C(=O)O[C@H]1C[C@@H](C)C=C2C=C[C@H](C)[C@H](CC[C@@H]3C[C@@H](O)CC(=O)O3)[C@H]21 [SIMVASTATIN],63.6,39.1,24.4,29.8,53.9,22.6,-4.94,-5.07,,
CO[C@H]1C[C@@H]2CC[C@@H](C)[C@@](O)(O2)C(=O)C(=O)N2CCCC[C@H]2C(=O)O[C@H]([C@H](C)C[C@@H]2CC[C@@H](O)[C@H](OC)C2)CC(=O)[C@H](C)/C=C(\C)[C@@H](O)[C@@H](OC)C(=O)[C@H](C)C[C@H](C)/C=C/C=C/C=C/1C [SIROLIMUS],58.5,59.1,62.6,47.3,,,,,67.7,-4.68
CC/C(=C(\c1ccccc1)c1ccc(OCCN(C)C)cc1)c1ccccc1 [TAMOXIFEN],8.92,50.8,12.2,8.96,,,,,64.9,-4.61
CS(=O)(=O)c1ccc([C@@H](O)[C@@H](CO)NC(=O)C(Cl)Cl)cc1 [THIAMPHENICOL],52,29.7,19.8,15.4,26,,-6,,,
O=C(c1cncc(Br)c1)N1CCC(N2CCCC2)CC1 [UNC669],0.456,20.1,0,0,,,,,,
O=C(c1cccc(Br)c1)N1CCC(N2CCCC2)CC1 [UNC926],8.09,0,8.91,8.49,,,,,,
O=C(c1ccc(C(=O)N2CCC(N3CCCC3)CC2)c(Nc2ccccc2)c1)N1CCC(N2CCCC2)CC1 [UNC1215],5.82,15,6.97,4.19,,,,,,
O=C(NCC(=O)N1CCCCC1)Nc1ccc2nnsc2c1 [UNC2327],5.31,3.13,10.6,8.94,,,,,,
CCCS(=O)(=O)Nc1ccc(F)c(C(=O)c2c[nH]c3ncc(-c4ccc(Cl)cc4)cc23)c1F [VEMURAFENIB],7.32,2.53,8.94,5.27,,,,,,
Cc1c(F)ccc(C(=O)Nc2cc([N+](=O)[O-])ccc2N2CCN(C)CC2)c1Cl [WDR5-C47],5.16,27.1,7.74,4.98,,,,,,
Nc1ccn([C@H]2CC[C@@H](CO)O2)c(=O)n1 [ZALCITABINE],14.5,14.2,2.54,13.5,,,,,,
